Tests used:
[1] = target: Mtb DnaK oligomers and DnaK-GrpE complex (Mycobacterium tuberculosis, UniProt P9WMJ9, T175A); format: binding
[2] = target: full-length apo DnaK (DnaK^FL) (Mycobacterium tuberculosis, UniProt P9WMJ9, T175A); format: binding
DnaK^NBD = format: binding; details: ITC
Mtb DnaK mutants [3] = target: Mtb DnaK mutants (Mycobacterium tuberculosis, UniProt P9WMJ9); format: biochemical
Mtb DnaK mutants [4] = target: Mtb DnaK mutants (Mycobacterium tuberculosis, UniProt P9WMJ9, R127A); format: biochemical
Mtb DnaK mutants [5] = target: Mtb DnaK mutants (Mycobacterium tuberculosis, UniProt P9WMJ9, E514A); format: biochemical
[6] = target: apo, ATP-bound or ADP-bound DnaK T175A (Mycobacterium tuberculosis, UniProt P9WMJ9, T175A)
[7] = target: Mtb DnaK Phe400Ala, Thr401Ala (Mycobacterium tuberculosis, UniProt P9WMJ9, F400A); format: binding

CNC(=O)[C@H]1O[C@@H](n2cnc3c(NCc4cccc(I)c4)nc(Cl)nc32)[C@H](O)[C@@H]1O [MECA, 2Cl-IB-MECA]
DnaK-GrpE complex formation [1]: not affected
binding to DnaK alone [2]: does not bind to DnaK alone

CCC[C@H](NC(=O)[C@@H]1[C@H]2CCC[C@H]2CN1C(=O)[C@@H](NC(=O)[C@@H](NC(=O)c1cnccn1)C1CCCCC1)C(C)(C)C)C(=O)C(=O)NC1CC1 [TP, Telaprevir]
oligomeric state of apo DnaK [1]: inhibited formation of dimers and higher order oligomers
interaction with DnaK^NBD (DnaK^NBD): no interaction
ATPase activity of DnaK lacking last ~110 residues (A513-K625) (Mtb DnaK mutants [3]): still disrupted ATPase activity
ATPase activity of DnaK Arg127Ala with excess TP (Mtb DnaK mutants [4]): tolerance to excess TP
increase in the IC50 value compared to wild-type (Mtb DnaK mutants [5]): 1.4 fold
stoichiometry TP: DnaK [2]: ~ 0.5
cleavage of DnaK by proteinase K [6]: protects full-length DnaK from cleavage

FL-β-Ala-Asn-Arg-Leu-Leu-Leu-Thr-Gly-OH [FL-NR]
EC50 for Phe400Ala relative to WT [7]: ~ 40 fold

— publication PMC9124243 (Cell chemical biology, 2021)
